# Laboratory results published in patent US20230302022A1, “PREVENTING OR MITIGATING CHEMOTHERAPY INDUCED ALOPECIA USING VITAMIN D” (priority 2016, published 2023).
# How the values were obtained:
# [1] = Chemical stability; assay type: physicochemical
# [2] = tested on: HEKa cells; experiment: Antibody microarray (Panorama XP725) of calcitriol-treated HEKa cells; assay type: cell-based, human; conditions: 24-hour
# Method: Briefly, the treated HEKa cells were first harvested and then extracted to obtain a soluble protein supernatant. Two portions of the extracted protein sample (˜1 mg total) from each sample (at 1 mg/mL) were each labeled with fluorescent dye (Cy3 and Cy5, respectively). The excess dye was removed from the protein sample, and the resulting labeled protein samples were used for microarray incubation. To determine the expression level of a particular target protein at a later time point (e.g., at hour 6 or 24) relative to that at an earlier time point (e.g., at hour 3), the samples were labeled by different labels (e.g., 3-hour extract labeled with Cy3, 6-hour or 24-hour extract labeled with Cy5). Then the two labeled samples containing equal amounts of total protein were mixed (e.g., Cy3-labeled 3-hour sample is mixed with Cy5-labeled 6-hour or 24-hour samples, respectively). After incubation with the microarray chip (according to manufactures recommended protocols), the chips were washed and dried. The microarrays were then scanned with a fluorescent laser scanner to measure the relative fluorescence intensity of the Cy3 and Cy5 dyes. If the amount of a particular type of target protein increased (or decreased) over time, more (or less) of the dye associated with the later time point (e.g., Cy5) will be retained by the microarray. […]
# [3] = tested on: PC-3; experiment: Cell viability assay, PC-3; assay type: cell-based; conditions: PC-3, 0.1 μg/mL calcitriol for two passages
# Method: The drug treatment period was usually three days. At the end of the three days, the background OD of the 96-well plate was read at 280 nm, before 20 μL of the “Substrate Cell Titer 96 Aqueous One Solution Reagent” (Promega) was added to each well. The plate was returned to the 37° C. incubator, and its OD at 490 nm was read each hour until an OD of approximately 1.5 was reached. The net OD increase was calculated by subtracting the pre-substrate OD reading.
# The impact of the drug on the cells was calculated by comparing the OD at different concentrations in relation to the OD of the control wells (without the drug).
# Then these pretreated cells were utilized to set up the cell based assay.
# [4] = tested on: C57BL/6 mice; conditions: cited from earlier work
# [5] = tested on: HEKa cells; experiment: 2-D gel electrophoresis proteomic analysis of calcitriol-treated HEKa cells; assay type: cell-based, human; conditions: 0.1 μg/mL calcitriol, 3, 6, 24 hours vs control
# Method: The cell pellets were then analyzed using proteomic methods, such as 2-D gel and Western blot analysis. […] In all, analysis of about 458 protein spots in the comparative study was performed, comparing the control sample against the 3-, 6-, and 24-hour treatment samples. Six spots showing statistically significant differential changes were identified. These spots were excised, and their protein contents subjected to sequence identification by trypsin digestion and mass spectrometry characterization.
# [6] = tested on: guinea pigs; experiment: Skin sensitization study in guinea pigs; assay type: in vivo, guinea pig; conditions: 5.7 μg/g
# Method: Induction phase. […] The induction exposure was repeated at the same skin site once a week for 2 weeks. The vehicle and positive control groups composed of 5 male and 5 female guinea pigs, each of which were exposed in the same manner as the treatment group to propylene glycol/anhydrous ethanol or hexylcinnamic aldehyde (a known mild to moderate skin-sensitizer), respectively. Skin reactions were scored and recorded at approximately 24 hours after patch removal during the induction phase. After the last induction exposure, the animals remained untreated for two weeks before the challenge exposure.
# Challenge phase. The challenge exposure was conducted two weeks after the final topical induction. The test article was topically applied to the Vehicle Control and Test Group at the concentration determined to be non-irritating in the irritation screen. The Vehicle Control Group was also challenged with the Vehicle. The Positive Control Groups received the positive control article. The challenge application sites were scored at approximately 24 and 48 hours after patch removal.
# [7] = tested on: BALB/c mice; conditions: cited from earlier work
# [8] = Preliminary animal toxicology study; assay type: in vivo; conditions: dose of about 100 μg
# [9] = tested on: HEKa cells; experiment: Real-time PCR Neuroscience Ion Channels and Transporters array, calcitriol-treated HEKa cells; assay type: cell-based, human; conditions: 0.1 μg/mL calcitriol, three independent experiments; for KCNB2 mRNA Regulation Pattern: until 24 hours
# Method: The PCR array analysis utilized two groups of genes—those related to Heat Shock Proteins (SABiosciences), and those related to Neuroscience Ion Channels and Transporters (SABioscience). Cell culture: Primary human epidermal keratinocytes (HEKa) were maintained in Epilife Medium (Cascade Biologics, Inc., Portland OR) along with Human Keratinocyte Growth Supplement (Cascade Biologics, Inc., Portland OR). […] D3 treatment of HEKa cells: […] Vehicle control group of cells were treated with 5 mL media containing 1 μL of ethanol. Cells were harvested 3, 6, 16, 24, 48, or 72 hours after the start of the treatment. RNA isolation: Cells were lysed for RNA isolation at different treatment times using the RNeasy Mini kit (Qiagen, Inc., Valencia CA) following the manufacturer's instructions. RNA was quantified by measuring optical density at 260 nm. First Strand Synthesis: […] Real-time PCR: Products from the first strand synthesis were diluted with water, mixed with the SYBR green master mix (SABiosciences., Frederick MD) and loaded onto PCR arrays. Real time PCR was run on the PCR Arrays (Heat Shock Protein Arrays, and Neuroscience and Ion Channel Arrays) (SABiosciences, Frederick MD) on a Biorad CFX96. Data analyses were performed using the PCR array data analysis software available on the SABiosciences website.
# [10] = tested on: C3H/HeJ mouse; experiment: C3H/HeJ model of alopecia areata; assay type: in vivo; conditions: 0.2 μg for 15 days, observed 30 days
# Description: Neonatal Rat model and PCA model. Sprague Dawley rats were purchased from Charles River Laboratories (Wilmington, MA). C3H/HeJ mouse were purchased from Jackson Laboratories (Bar Harbour, ME). Rodents were housed and fed according to NIH guidelines. […] Uskokovic (Hoffman-La Roche, Nutley, NJ). For experiments involving C3H/HeJ mice, 1,25(OH)2D3 was purchased from Sigma (St. Louis, M0). C3H/HeJ Model of Abpecia Areata. Retired breeders (8 months of age) were observed daily for the development of AA lesions.
smiles,measurement,setting,value
"C=C1/C(=C\C=C2/CCC[C@]3(C)[C@@H]([C@H](C)CCCC(C)(C)O)CC[C@@H]23)C[C@@H](O)C[C@@H]1O [Calcitriol, (5Z,7E)-9,10-secocholesta-5,7.10(19Hriene-1 a,33.25-triol]",Chemical Stability,[1],Stable at room temperature
same,proteins significantly upregulated (number),[2],about fifty proteins
same,"response to doxorubicin, cisplatin and erlotinib after calcitriol exposure",[3],did not alter
same,follicular apoptosis induced by cyclophosphamide,"[4]; C57BL/6 mice, topical",significantly diminish the degree of follicular apoptosis
same,prevention of cyclophosphamide-induced alopecia,[4]; female C57BL/6 adolescent mice,failed to demonstrate efficacy
same,regrowth of pigmented hair shafts,[4]; female C57BL/6 adolescent mice,"significantly accelerated, enhanced, and quantitatively improved"
same,Galectin 1 (LGALS1) Response,[5],up at 6 and 24
same,Glutathione S-transferase (GST) Response,[5],"up at 3, 6, and 24"
same,Keratin 17 (KR17) Response,[5],down at 24 hours
same,S100 A9 (Calprotectin) Response,[5],down at 6 and 24
same,S100 A13 Response,[5],up at 6 and 24
same,skin sensitization,[6],not determined to be a sensitizer
same,protective effect in tumor-bearing female mice,"[7]; EMT-6, vs female mice without tumor and tumor-bearing males",more efficient protective effect
same,protective effect in tumor-bearing male mice,[7]; EMT-6 tumor cells,diminished
same,degree of CIA,"[7]; male BALB/c mice, topical 5 days prior to cyclophosphamide",significantly reduced the degree of CIA in a dose-dependent manner
same,apoptosis staining pattern vs unexposed mice,"[7]; mouse, in vivo",no significant differences in apoptosis staining pattern
same,dermal irritation,[8],no dermal irritation
same,epidermal / dermal penetration,[8],excellent epidermal penetration without substantial dermal penetration
same,SLC1A1 mRNA Regulation Pattern,[9]; at 16 hrs,upregulated at
same,KCNN4 mRNA Regulation Pattern,[9]; at 48 hours,upregulated at 48
same,KCNB2 mRNA Regulation Pattern,[9],upregulated
same,KCNB2 mRNA Regulation Pattern,[9]; listed as Vitamin D3,upregulated until
same,regrowth of hair in alopecic lesions,[10],No regrowth of hair
